One data set concerns HUH7-ZikaPRVABC59. Put plainly: microbe, parasite or virus in culture. The class given is cell-based. The note with it: Zika virus.
Another data set concerns HCV Replicon. Nature of the data set: microbe, parasite or virus in culture. It is filed as cell-based. Particulars: Hepatitis C virus.
The nature of data set [1]: in vitro. Particulars: human.
A short description of data set [2]: in vitro.
The nature of data set [3]: in vitro. The note with it: human. This is another data set of the same source.
Another data set deals with protein synthesis. Particulars: read-out: IC50 protein synthesis inhibition; cited from earlier work.
A further data set relates to CEM-SS/HIVRF. The class given is cell-based, HIV1.

Where two headings read alike, the source gives them in different places.

One may read the EC50 as the midpoint of the concentration-response curve. Low values mean greater potency, high ones weaker potency. Take `CC(C)OC(=O)[C@H](C)N[P@](=O)(OC[C@H]1O[C@@H](n2ccc(=O)[nH]c2=O)[C@](C)(F)[C@@H]1O)Oc1ccccc1` [Sofosbuvir]: the figures for the EC50 in the data set with HUH7-ZikaPRVABC59 and with HCV Replicon were 2090 nM and 50 nM, respectively. The CC50 is over 10000 nM in “in vitro [1]” and over 1000 nM in the data set “in vitro [2]”.

`Nc1ccn([C@@H]2CS[C@H](CO)O2)c(=O)n1` [3TC, Lamivudine] gave a CC50 in “in vitro [3]” of over 10000 nM.

As usually defined, the IC50 is the concentration needed to halve the response being measured. As to PAP1, in the data set with E. coli, the “increased toxicity to E. coli compared to PAPS1” value is given as over 10 fold. For the same molecule, in the data set on protein synthesis, the IC50 was 0.29 nM.

`Cc1cn([C@H]2C[C@H](N=[N+]=[N-])[C@@H](CO)O2)c(=O)[nH]c1=O` [AZT] displayed an EC50 with CEM-SS/HIVRF of 0.8 nM. Further, the CC50 with CEM-SS is over 1000 nM.

Source of the values: patent publication US20200392192A1 (priority 2018, published 2020).
